ChEMBL document CHEMBL3885881, “DrugMatrix”

Species on record: Rattus norvegicus
Experiment: DrugMatrix - Regimen: Daily Repeat
Format: toxicity, organism-based, Sprague-Dawley
Parameters: regimen Daily Repeat, gender Male, age 6-8 weeks
Details: in vivo, po, route oral GAVAGE, […]; for ABSOLUTE BASOPHIL / ABSOLUTE EOSINOPHIL / ABSOLUTE LYMPHOCYTE / ABSOLUTE MONOCYTE / ABSOLUTE SEGMENTED NEUTROPHIL / BASOPHIL / EOSINOPHIL / ERYTHROCYTE COUNT / HEMATOCRIT / HEMOGLOBIN / LEUKOCYTE COUNT / LYMPHOCYTE / MEAN CORPUSCULAR HEMOGLOBIN / MEAN CORPUSCULAR HEMOGLOBIN CONCENTRATION / MEAN CORPUSCULAR VOLUME / MONOCYTE / NEUTROPHIL / NUCLEATED RED BLOOD CELLS / PLATELET COUNT: tissue Blood; for ALANINE AMINOTRANSFERASE / ALBUMIN / ALKALINE PHOSPHATASE / ASPARTATE AMINOTRANSFERASE / BLOOD UREA NITROGEN / CARBON DIOXIDE / CHLORIDE / CHOLESTEROL / CREATINE PHOSPHOKINASE / CREATININE / GLUCOSE / LACTATE DEHYDROGENASE / LIPASE / PHOSPHORUS / POTASSIUM / SODIUM / TOTAL BILIRUBIN / TOTAL PROTEIN / URIC ACID: tissue Plasma
[1] = 0 mg/kg, 72 h, dose level Control, time 3 day
[2] = 0 mg/kg, 120 h, dose level Control, time 5 day
[3] = 5 mg/kg, 72 h, dose level Low, time 3 day

SMILES: O=c1oc2ccccc2c(O)c1Cc1c(O)c2ccccc2oc1=O [DICUMAROL]
- ABSOLUTE BASOPHIL [1]: 0 CELLS/uL
- ABSOLUTE EOSINOPHIL [1]: 0 CELLS/uL
- ABSOLUTE LYMPHOCYTE [1]: 9244.83 CELLS/uL
- ABSOLUTE MONOCYTE [1]: 102 CELLS/uL
- ABSOLUTE SEGMENTED NEUTROPHIL [1]: 869.83 CELLS/uL
- BASOPHIL [1]: 0%
- EOSINOPHIL [1]: 0%
- ERYTHROCYTE COUNT [1]: 5.43 x10E6/uL
- HEMATOCRIT [1]: 34.03%
- HEMOGLOBIN [1]: 13.27 G/DL
- LEUKOCYTE COUNT [1]: 10.22 x10E3/uL
- LYMPHOCYTE [1]: 90.33%
- MEAN CORPUSCULAR HEMOGLOBIN [1]: 24.48 pg
- MEAN CORPUSCULAR HEMOGLOBIN CONCENTRATION [1]: 39.03 G/DL
- MEAN CORPUSCULAR VOLUME [1]: 62.75 fL
- MONOCYTE [1]: 1%
- NEUTROPHIL [1]: 8.67%
- NUCLEATED RED BLOOD CELLS [1]: 0.17 /100WBC
- PLATELET COUNT [1]: 989 x10E3/uL
- ALANINE AMINOTRANSFERASE [1]: 77 u/L
- ALBUMIN [1]: 3.97 G/DL
- ALKALINE PHOSPHATASE [1]: 464.83 u/L
- ASPARTATE AMINOTRANSFERASE [1]: 89.83 u/L
- BLOOD UREA NITROGEN [1]: 12.17 mg/dL
- CARBON DIOXIDE [1]: 34.17 mmol/L
- CHLORIDE [1]: 98.33 MEQ/L
- CHOLESTEROL [1]: 75.17 mg/dL
- CREATINE PHOSPHOKINASE [1]: 367.67 u/L
- CREATININE [1]: 0.16 mg/dL
- GLUCOSE [1]: 142.67 mg/dL
- LACTATE DEHYDROGENASE [1]: 139.33 u/L
- LIPASE [1]: 9.5 u/L
- PHOSPHORUS [1]: 10.85 mg/dL
- POTASSIUM [1]: 6.38 MEQ/L
- SODIUM [1]: 143.2 MEQ/L
- TOTAL BILIRUBIN [1]: 0.2 mg/dL
- TOTAL PROTEIN [1]: 5.77 G/DL
- URIC ACID [1]: 0.7 mg/dL
- ABSOLUTE BASOPHIL [2]: 0 CELLS/uL
- ABSOLUTE EOSINOPHIL [2]: 0 CELLS/uL
- ABSOLUTE LYMPHOCYTE [2]: 8295.33 CELLS/uL
- ABSOLUTE MONOCYTE [2]: 84.67 CELLS/uL
- ABSOLUTE SEGMENTED NEUTROPHIL [2]: 970 CELLS/uL
- BASOPHIL [2]: 0%
- EOSINOPHIL [2]: 0%
- ERYTHROCYTE COUNT [2]: 5.74 x10E6/uL
- HEMATOCRIT [2]: 36.22%
- HEMOGLOBIN [2]: 13.85 G/DL
- LEUKOCYTE COUNT [2]: 9.35 x10E3/uL
- LYMPHOCYTE [2]: 88.67%
- MEAN CORPUSCULAR HEMOGLOBIN [2]: 24.13 pg
- MEAN CORPUSCULAR HEMOGLOBIN CONCENTRATION [2]: 38.25 G/DL
- MEAN CORPUSCULAR VOLUME [2]: 63.08 fL
- MONOCYTE [2]: 1%
- NEUTROPHIL [2]: 10.33%
- NUCLEATED RED BLOOD CELLS [2]: 0.17 /100WBC
- PLATELET COUNT [2]: 883.83 x10E3/uL
- ALANINE AMINOTRANSFERASE [2]: 64.5 u/L
- ALBUMIN [2]: 4.12 G/DL
- ALKALINE PHOSPHATASE [2]: 425.67 u/L
- ASPARTATE AMINOTRANSFERASE [2]: 88.5 u/L
- BLOOD UREA NITROGEN [2]: 14.17 mg/dL
- CARBON DIOXIDE [2]: 30.5 mmol/L
- CHLORIDE [2]: 100.33 MEQ/L
- CHOLESTEROL [2]: 55.33 mg/dL
- CREATINE PHOSPHOKINASE [2]: 287.17 u/L
- CREATININE [2]: 0.2 mg/dL
- GLUCOSE [2]: 162.83 mg/dL
- LACTATE DEHYDROGENASE [2]: 111.33 u/L
- LIPASE [2]: 10.5 u/L
- PHOSPHORUS [2]: 10.32 mg/dL
- POTASSIUM [2]: 5.13 MEQ/L
- SODIUM [2]: 143.93 MEQ/L
- TOTAL BILIRUBIN [2]: 0.17 mg/dL
- TOTAL PROTEIN [2]: 5.9 G/DL
- URIC ACID [2]: 0.77 mg/dL
- ABSOLUTE BASOPHIL [3]: 0 CELLS/uL
- ABSOLUTE EOSINOPHIL [3]: 0 CELLS/uL
- ABSOLUTE LYMPHOCYTE [3]: 11414.33 CELLS/uL
- ABSOLUTE MONOCYTE [3]: 52 CELLS/uL
- ABSOLUTE SEGMENTED NEUTROPHIL [3]: 1133.67 CELLS/uL
- BASOPHIL [3]: 0%
- EOSINOPHIL [3]: 0%
- ERYTHROCYTE COUNT [3]: 5.32 x10E6/uL
- HEMATOCRIT [3]: 33.6%
- HEMOGLOBIN [3]: 13.17 G/DL
- LEUKOCYTE COUNT [3]: 12.6 x10E3/uL
- LYMPHOCYTE [3]: 91%
- MEAN CORPUSCULAR HEMOGLOBIN [3]: 24.8 pg
- MEAN CORPUSCULAR HEMOGLOBIN CONCENTRATION [3]: 39.2 G/DL
- MEAN CORPUSCULAR VOLUME [3]: 63.37 fL
- MONOCYTE [3]: 0.33%
- NEUTROPHIL [3]: 8.67%
- NUCLEATED RED BLOOD CELLS [3]: 0 /100WBC
- PLATELET COUNT [3]: 1057.33 x10E3/uL
- ALANINE AMINOTRANSFERASE [3]: 67.67 u/L
- ALBUMIN [3]: 4.03 G/DL
- ALKALINE PHOSPHATASE [3]: 399.67 u/L
- ASPARTATE AMINOTRANSFERASE [3]: 91 u/L
- BLOOD UREA NITROGEN [3]: 10.33 mg/dL
- CARBON DIOXIDE [3]: 32.67 mmol/L
- CHLORIDE [3]: 99 MEQ/L
- CHOLESTEROL [3]: 74 mg/dL
- CREATINE PHOSPHOKINASE [3]: 353.33 u/L
- CREATININE [3]: 0.24 mg/dL
- GLUCOSE [3]: 146 mg/dL
- LACTATE DEHYDROGENASE [3]: 177 u/L
- LIPASE [3]: 9 u/L
- PHOSPHORUS [3]: 11.23 mg/dL
- POTASSIUM [3]: 6.24 MEQ/L
- SODIUM [3]: 143.6 MEQ/L
- TOTAL BILIRUBIN [3]: 0.17 mg/dL
- TOTAL PROTEIN [3]: 5.7 G/DL
- URIC ACID [3]: 0.6 mg/dL
